The record followed here is patent publication US20170076040A1, “SINGLE-CELL ANALYSIS AS A SENSITIVE AND SPECIFIC METHOD FOR EARLY CANCER DETECTION” (THE BOARD OF REGENTS OF THE UNIVERSITY OF TEXAS SYSTEM, priority 2014, published 2017).

Each structure is given as a SMILES string.

Common to all, as to assay type: cell-based
For experiment [1], the system named is LNCaP cells. Kind of experiment: RT-qPCR expression of bimodal genes in LNCaP cells with and without R1881. As to conditions: R1881 1 nM, relative to untreated cells, period of 36 hrs. The procedure: (§1) LNCaP and PC3 cells routinely grown in the laboratory were transfected with SMARTpool siRNAs specifically targeting TGFBR2 and GSK3B, respectively, according to the manufacturer protocol (ThermoFisher). Unspecific scrambled siRNA was used as a negative control. Total RNA were prepared from transfected and control cells or from cells treated with R1881 (1 nM), a synthetic androgen agonist. Reverse transcription was performed using the SuperScript III kit (Invitrogen) on a Veriti 96-well Thermocycler (Applied Biosystems). Relative expression values of genes were shown as the average fold changes (2−ΔΔCt) from three individual experiments using UBB as an internal control and the untreated expression designated as 1.

In experiment [2] the test system is PC3 cells. Kind of experiment: RT-qPCR expression of bimodal genes in PC3 cells with and without R1881. As to conditions: R1881 1 nM, androgen-independent PC3 cells. The procedure:
as §1

In experiment [3] the test system is LNCaP cells. The experiment can be described thus: Cell proliferation, migration, and invasion assays (IncuCyte ZOOM), LNCaP. The conditions noted are these: R1881 1 nM (low-dose). The procedure:
(§2) Cells were seeded in triplicate wells of a 96-well plate, and every three hours four independent images were taken per well and quantified for confluence percentage using the IncuCyte ZOOM system. To eliminate variations of cell size and seeding densities, relative cell densities at all time points' values were normalized to the initial time point's average confluence.
(§3) Cell monolayers were seeded to optimized confluent levels in a 96-well ImageLock Plate (Essen BioSciences). The 96-well WoundMaker created equal scratches in every well simultaneously for cell migration and invasion analysis (Essen BioSciences). For invasion assays, BD Matrigel™ Basement Membrane Matrix (BD Biosciences) was used for coating the ImageLock plates, creating a thick layer above the scratched monolayer, 0.1 and 4.0 mg/ml respectively. The IncuCyte ZOOM system's scan mode set to scratch wound and wide mode and captured 1 image every 3 hours. Migration and invasion were analyzed using the relative wound density percent (RWD %) metric.

The test system of experiment [4] is PC3 cells. The experiment can be described thus: Cell proliferation, migration, and invasion assays (IncuCyte ZOOM), PC3. The conditions noted are these: R1881 1 nM, androgen-independent PC3 cells. The procedure:
as §2, §3

As to `C[C@]1(O)CC[C@H]2[C@@H]3CCC4=CC(=O)CCC4=C3C=C[C@@]21C` [R1881], in the experiment on LNCaP cells [1], the “expression of CDKN1C” value was “further repressed” and the “expression of CXCL6” value was “further repressed”. Moreover, in the experiment on PC3 cells [2], the gene expression patterns entry was “did not alter”. Also, in the experiment on LNCaP cells [3], the cell growth result is recorded as “did not cause noticeable changes”, the invasion result was “did not cause noticeable changes” and the migration entry is recorded as “did not cause noticeable changes”. In addition, in the experiment on PC3 cells [4], the cellular phenotypes entry is “did not alter”.
